Data set [1] can be described thus: Absorbance and fluorescence emission spectra (SpectraMax M2). The format is physicochemical. The method, then:
BDC-8 (Blue): absorbance λmax=473 nm, emission λmax=585 nm; MK101-8 (Green): absorbance λmax=474 nm, emission λmax=563 nm; MKHA374-48 (Yellow): absorbance λmax=468 nm, λem=557 nm. The corresponding spectra of a reported BODIPY (BD-27; Red) are also included for comparison: absorbance λmax=551 nm, emission λmax=568 nm. The structures of BDC-8, MK101-8, MKHA374-48 and BD-27 are also depicted.
(§1) ^1H-NMR, ^19F-NMR and ^13C-NMR spectra were recorded on Bruker ACF300 (300 MHz), DPX300 (300 MHz) and AMX500 (500 MHz) spectrometers. High resolution mass spectra (ESI) were obtained on a Finnigan/MAT 95XL-T spectrometer. Spectroscopic and quantum yield data were measured on a SpectraMax M2 spectrophotometer (Molecular Devices). Data analysis was performed using GraphPrism 5.0. Analytical characterization was performed on a HPLC-MS (Agilent-1200 series) with a DAD detector and a single quadrupole mass spectrometer (6130 series) with an ESI probe. Analytical HPLC method: eluents, A: H2O (0.1% HCOOH), B: CH3CN (0.1% HCOOH), gradient 5% B to 95% B (10 min). Reverse-phase Phenomenex C18 Luna column (4.6×50 mm^2, 3.5 […]), flow rate: 1 mL/min.

The nature of data set [2]: Quantum yield measurements versus Acridine Yellow in EtOH. The format is physicochemical. Conditions: excitation 460 nm. On the procedure: as §1
Quantum yields were calculated by measuring the integrated emission area of the fluorescent spectra and comparing to the area measured for Acridine Yellow in EtOH when excited at 460 nm (Φfluorescence^AcridineYellow=0.47). Quantum yields for the amino-triazolyl-BODIPYs were calculated using the equation below, where F represents the area of fluorescent emission, η is the refractive index of the solvent, and Abs is absorbance at the excitation wavelength selected for standards and samples. Emission was integrated between 510 and 700 nm.

Molecules are shown by their SMILES.

In the case of `CC(=O)Nc1ccc(C2=C3C=CC(N4CCCCC4)=[N+]3[B-](F)(F)n3c2ccc3-n2cc(-c3ccc(OC(F)(F)F)cc3)nn2)cc1` [BDCAC-15], in data set [1] (BDCAC library, Table 3), the “λmax Absorp.” value is on record as 463 nm and the “λmax Emission” value was 537 nm. Also, in data set [2] (BDCAC library, Table 3), the “φ (quantum yield)” value was determined as 2.7%.
For `CC(=O)Nc1ccc(C2=C3C=CC(N4CCCCC4)=[N+]3[B-](F)(F)n3c2ccc3-n2cc(-c3ccc(F)c(F)c3)nn2)cc1` [BDCAC-16], in that order: 462 nm, 586 nm and 0.7%.
Regarding `CC(=O)Nc1ccc(C2=C3C=CC(N4CCCCC4)=[N+]3[B-](F)(F)n3c2ccc3-n2cc(COc3ccccc3)nn2)cc1` [BDCAC-17], in data set [1] (BDCAC library, Table 3), the “λmax Absorp.” value was determined as 465 nm and the “λmax Emission” value is 584 nm. Moreover, in data set [2] (BDCAC library, Table 3), the “φ (quantum yield)” value was determined as 0.8%.
For `CC(=O)Nc1ccc(C2=C3C=CC(N4CCCCC4)=[N+]3[B-](F)(F)n3c2ccc3-n2cc(CN(C)Cc3ccccc3)nn2)cc1` [BDCAC-18], in data set [1] (BDCAC library, Table 3), the “λmax Absorp.” value came to 465 nm and the “λmax Emission” value was 588 nm. For the same compound, in data set [2] (BDCAC library, Table 3), the “φ (quantum yield)” value was determined as 0.8%.
For `CC(=O)Nc1ccc(C2=C3C=CC(N4CCCCC4)=[N+]3[B-](F)(F)n3c2ccc3-n2cc(CCc3ccccc3)nn2)cc1` [BDCAC-19] the same measures were 467 nm, 580 nm and 0.9%.
For `COc1ccc2cc(-c3cn(-c4ccc5n4[B-](F)(F)[N+]4=C(N6CCCCC6)C=CC4=C5c4ccc(NC(C)=O)cc4)nn3)ccc2c1` [BDCAC-22], in that order: 465 nm, 585 nm and 1.2%.
For `CC(=O)Nc1ccc(C2=C3C=CC(N4CCCCC4)=[N+]3[B-](F)(F)n3c2ccc3-n2cc(-c3ccc(-c4ccccc4)cc3)nn2)cc1` [BDCAC-23] the same measures were 465 nm, 574 nm and 1.3%.
On to `CC(=O)Nc1ccc(C2=C3C=CC(N4CCCCC4)=[N+]3[B-](F)(F)n3c2ccc3-n2cc(-c3ccc(F)cc3F)nn2)cc1` [BDCAC-26], for which, in data set [1] (BDCAC library, Table 3), the “λmax Absorp.” value was found to be 465 nm and the “λmax Emission” value was found to be 567 nm. Moreover, the “φ (quantum yield)” value in data set [2] (BDCAC library, Table 3) was 1.3%.
For `COc1cccc(-c2cn(-c3ccc4n3[B-](F)(F)[N+]3=C(N5CCCCC5)C=CC3=C4c3ccc(NC(C)=O)cc3)nn2)c1` [BDCAC-27], in that order: 464 nm, 555 nm and 2.1%.
As to `CCCCCc1ccc(-c2cn(-c3ccc4n3[B-](F)(F)[N+]3=C(N5CCCCC5)C=CC3=C4c3ccc(NC(C)=O)cc3)nn2)cc1` [BDCAC-29], in data set [1] (BDCAC library, Table 3), the “λmax Absorp.” value was found to be 465 nm and the “λmax Emission” value is 561 nm. Also, in data set [2] (BDCAC library, Table 3), the “φ (quantum yield)” value is reported as 1.6%.
`CC(=O)Nc1ccc(C2=C3C=CC(N4CCCCC4)=[N+]3[B-](F)(F)n3c2ccc3-n2cc(-c3cc(C(F)(F)F)cc(C(F)(F)F)c3)nn2)cc1` [BDCAC-30]: in data set [1] (BDCAC library, Table 3), the “λmax Absorp.” value was determined as 459 nm and the “λmax Emission” value was 549 nm. Also, the “φ (quantum yield)” value in data set [2] (BDCAC library, Table 3) is listed as 3.5%.
For `CC(=O)Nc1ccc(C2=C3C=CC(N4CCCCC4)=[N+]3[B-](F)(F)n3c2ccc3-n2cc(-c3cccc(F)c3)nn2)cc1` [BDCAC-31], in that order: 463 nm, 569 nm and 0.9%.
For `CC(=O)Nc1ccc(C2=C3C=CC(N4CCCCC4)=[N+]3[B-](F)(F)n3c2ccc3-n2cc(CCC(C)C)nn2)cc1` [BDCAC-36] the same measures were 467 nm, 585 nm and 0.8%.
`CC(=O)Nc1ccc(C2=C3C=CC(N4CCCCC4)=[N+]3[B-](F)(F)n3c2ccc3-n2cc(C3=CCCCC3)nn2)cc1` [BDCAC-37]: in data set [1] (BDCAC library, Table 3), the “λmax Absorp.” value was 466 nm and the “λmax Emission” value is 565 nm. For the same compound, the “φ (quantum yield)” value in data set [2] (BDCAC library, Table 3) was 1.9%.
For `CCCCc1cn(-c2ccc3n2[B-](F)(F)[N+]2=C(N4CCCCC4)C=CC2=C3c2ccc(NC(C)=O)cc2)nn1` [BDCAC-42] the same measures were 467 nm, 577 nm and 1.3%.
For `CC(=O)Nc1ccc(C2=C3C=CC(N4CCCCC4)=[N+]3[B-](F)(F)n3c2ccc3-n2cc(CC(C)C)nn2)cc1` [BDCAC-43], in that order: 467 nm, 581 nm and 0.8%.
For `CCCCCCCCc1cn(-c2ccc3n2[B-](F)(F)[N+]2=C(N4CCCCC4)C=CC2=C3c2ccc(NC(C)=O)cc2)nn1` [BDCAC-44], in that order: 468 nm, 581 nm and 0.8%.
In the case of `CC(=O)Nc1ccc(C2=C3C=CC(N4CCCCC4)=[N+]3[B-](F)(F)n3c2ccc3-n2cc(-c3cccc(C)c3)nn2)cc1` [BDCAC-45], in data set [1] (BDCAC library, Table 3), the “λmax Absorp.” value was 463 nm and the “λmax Emission” value came to 551 nm. Moreover, the “φ (quantum yield)” value in data set [2] (BDCAC library, Table 3) worked out at 3.2%.
For `CCc1ccc(-c2cn(-c3ccc4n3[B-](F)(F)[N+]3=C(N5CCCCC5)C=CC3=C4c3ccc(NC(C)=O)cc3)nn2)cc1` [BDCAC-46], in that order: 465 nm, 578 nm and 1.4%.
Take `CCCCCCc1cn(-c2ccc3n2[B-](F)(F)[N+]2=C(N4CCCCC4)C=CC2=C3c2ccc(NC(C)=O)cc2)nn1` [BDCAC-47]: in data set [1] (BDCAC library, Table 3), the “λmax Absorp.” value is reported as 467 nm and the “λmax Emission” value is on record as 562 nm. The “φ (quantum yield)” value in data set [2] (BDCAC library, Table 3) was determined as 1.4%.
On to `CCCc1cn(-c2ccc3n2[B-](F)(F)[N+]2=C(N4CCCCC4)C=CC2=C3c2ccc(NC(C)=O)cc2)nn1` [BDCAC-48], for which, in data set [1] (BDCAC library, Table 3), the “λmax Absorp.” value is 467 nm and the “λmax Emission” value came out at 576 nm. For the same compound, the “φ (quantum yield)” value in data set [2] (BDCAC library, Table 3) worked out at 1.6%.
For `CCCCCCCCCCc1cn(-c2ccc3n2[B-](F)(F)[N+]2=C(N4CCCCC4)C=CC2=C3c2ccc(NC(C)=O)cc2)nn1` [BDCAC-49], in that order: 467 nm, 575 nm and 1.3%.
Regarding `CCCCCCCc1cn(-c2ccc3n2[B-](F)(F)[N+]2=C(N4CCCCC4)C=CC2=C3c2ccc(NC(C)=O)cc2)nn1` [BDCAC-50], in data set [1] (BDCAC library, Table 3), the “λmax Absorp.” value is 467 nm and the “λmax Emission” value is 567 nm. Moreover, in data set [2] (BDCAC library, Table 3), the “φ (quantum yield)” value is recorded as 1.4%.
For `CC(=O)Nc1ccc(C2=C3C=CC(N4CCCCC4)=[N+]3[B-](F)(F)n3c2ccc3-n2cc(C3(O)CCCC3)nn2)cc1` [BDCAC-67], in that order: 469 nm, 592 nm and 0.8%.
For `CC(=O)Nc1ccc(C2=C3C=CC(N4CCCCC4)=[N+]3[B-](F)(F)n3c2ccc3-n2cc(CO)nn2)cc1` [BDCAC-70] the same measures were 467 nm, 583 nm and 0.7%.
With `CC(C)(C)c1cn(-c2ccc3n2[B-](F)(F)[N+]2=C(N4CCCCC4)C=CC2=C3c2ccc(NC(=O)CCl)cc2)nn1` [BDCCA-1], in data set [1] (BDCCA library, Table 4), the “λmax Absorp.” value turned out to be 468 nm and the “λmax Emission” value came to 581 nm. Further, the “φ (quantum yield)” value in data set [2] (BDCCA library, Table 4) came out at 0.7%.

For the origin of these results see patent US9513294B2, “Megastokes amino-triazolyl-BODIPY compounds and applications to live neuron staining and human serum albumin FA1 drug site probing” (National University of Singapore, priority 2012, dated 2016).
